# Experimental data taken from patent US8754109B2 (Intermune, Inc., priority 2010, dated 2014).
# Key:
# [1] = Phase 1 open-label study: impact of CYP1A2 inhibition (fluvoxamine) and induction (smoking) on pirfenidone pharmacokinetics; format: in vivo, human; conditions: for effect of fluvoxamine co-administration on AUC0-∞: Day 11 vs Day 1, paired t-test; for Ratio of Day 11 AUC0-∞ to Day 1 AUC0-∞, Mean (SD) / Ratio of Day 11 AUC0-∞ to Day 1 AUC0-∞, Median (25th-75th): Day 11 with fluvoxamine; for AUC0-∞ Mean (SD) / AUC0-∞ Median (25th-75th): single 801-mg dose of pirfenidone, healthy subjects n = 51, plasma
# Protocol: Fifty-four subjects were to be enrolled in two groups, consisting of 27 subjects who were smokers (Group 1) and 27 subjects who were nonsmokers (Group 2). Each group (smokers and nonsmokers) was to include a minimum of nine females and nine males, and attempts were to be made to enroll equal numbers of each sex in each group.
# All pharmacokinetic (PK) analyses were conducted using population PK methods using Monte-Carlo parametric expectation maximization as implemented in the open-source software program S ADAPT 1.5.6 (Bauer et al., AAPS Journal 9 (1):E60-83, 2007). The structural model for the analysis was obtained from a preliminary population PK analysis.
# If other subject characteristics (such as body size or age) were also associated with the ratio of AUC0-∞ on Day 11 to that on Day 1, the significance of these covariates was also tested.
# [2] = tested on: multiple other CYPs (1A1, 2A6, 2B6, 2C8, 2C9, 2C18, 2C19, 2D6, 2E1, 2J2, 3A4, 3A5, 4A11, and 4F2); assay: in vitro experiments on pirfenidone metabolism by CYP isoforms; format: in vitro ADME; conditions: each isoform
# [3] = pirfenidone therapy, oral; cited from earlier work
# CYP1A2 = CYP1A2 (Homo sapiens, UniProt P05177); assay: in vitro experiments on pirfenidone metabolism by CYP isoforms; format: in vitro ADME
# Chain of CYP1A2 (P05177 whole entry, canonical isoform): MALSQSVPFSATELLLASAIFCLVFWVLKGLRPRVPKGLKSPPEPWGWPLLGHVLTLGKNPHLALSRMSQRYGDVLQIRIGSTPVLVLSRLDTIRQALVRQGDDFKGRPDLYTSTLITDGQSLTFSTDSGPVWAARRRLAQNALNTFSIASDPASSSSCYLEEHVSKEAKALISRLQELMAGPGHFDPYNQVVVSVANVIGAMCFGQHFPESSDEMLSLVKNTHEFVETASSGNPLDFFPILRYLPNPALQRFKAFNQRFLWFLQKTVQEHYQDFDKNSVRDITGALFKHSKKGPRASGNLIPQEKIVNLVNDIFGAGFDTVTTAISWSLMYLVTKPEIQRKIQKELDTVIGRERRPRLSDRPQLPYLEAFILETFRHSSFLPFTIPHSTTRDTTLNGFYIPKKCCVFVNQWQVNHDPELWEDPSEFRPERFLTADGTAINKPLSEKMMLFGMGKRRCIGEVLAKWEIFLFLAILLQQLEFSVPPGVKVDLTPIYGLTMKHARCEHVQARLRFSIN
"ratio of Cmax on Day 11 to the Cmax on Day 1, mean (95% CI) ([1]; Day 11 after fluvoxamine vs Day 1, all subjects)",effect of fluvoxamine co-administration on AUC0-∞ [1],"Ratio of Day 11 AUC0-∞ to Day 1 AUC0-∞, Mean (SD) ([1]; Nonsmokers (N 25))","Ratio of Day 11 AUC0-∞ to Day 1 AUC0-∞, Median (25th-75th) ([1]; Nonsmokers (N 25))","Ratio of Day 11 AUC0-∞ to Day 1 AUC0-∞, Mean (SD) ([1]; Smokers (N 26))","Ratio of Day 11 AUC0-∞ to Day 1 AUC0-∞, Median (25th-75th) ([1]; Smokers (N 26))",AUC0-∞ Mean (SD) ([1]; Study Day 1: Pre-Fluvoxamine),AUC0-∞ Median (25th-75th) ([1]; Study Day 1: Pre-Fluvoxamine),AUC0-∞ Mean (SD) ([1]; Study Day 11: Post-Fluvoxamine),AUC0-∞ Median (25th-75th) ([1]; Study Day 11: Post-Fluvoxamine),share of pirfenidone metabolism by each of the other CYPs [2] [%],"drop in AUC0-∞ in smokers after accounting for differences in BSA ([1]; Day 1 estimates, AUC0-∞ normalized to body surface area, multiple linear regression, smokers vs nonsmokers) [%]","increase in Cmax after administration of fluvoxamine, on average ([1]; after administration of fluvoxamine)","exposure (AUC0-∞) times higher after fluvoxamine, on average ([1]; after ten days of dosing with fluvoxamine) [times]","decrease in pirfenidone exposure (AUC0-∞) in patients that concomitantly smoke, on average ([1]; compared to patients that do not smoke)","exposure (AUC0-∞) in patients who smoke as % of exposure in patients that didn't smoke, on average ([1]; smokers vs nonsmokers)",share of pirfenidone metabolism by CYP1A2 (CYP1A2),SMILES,"incidence of most common adverse reactions (nausea, rash, dyspepsia, dizziness, vomiting, photosensitivity reaction, anorexia) [3] [%]"
0.369 (0.349-0.390),not a statistically significant effect,1.05 (0.114),1.03 (0.978-1.11),1.12 (0.0951),1.13 (1.04-1.19),29.3 (8.22) mg · hr/L,26.9 (22.0-33.7) mg · hr/L,31.7 (8.96) mg · hr/L,29.4 (25.4-36.5) mg · hr/L,,,,,,,,"O=C(O)c1ccc(=O)n(-c2ccccc2)c1 [5-Carboxy-Pirfenidone, 5-carboxy-pirfenidone]",
,significant increase,,,,,,,,,< 13,~50,two-fold,~6,about 50%,about 50%,approx. 48%,"Cc1ccc(=O)n(-c2ccccc2)c1 [Pirfenidone, 5-methyl-1-phenyl-2-(1H)-pyridone, reference compound]",> 10
